Results on five compounds are retold here after publication PMC8294803, “A Roadmap to the Structure-Related Metabolism Pathways of Per- and Polyfluoroalkyl Substances in the Early Life Stages of Zebrafish (Danio rerio)” (Environmental Health Perspectives, 2021).

One data set relates to zebrafish embryos. The following applies: for pericardial oedemata, Mean / spinal curvature, Mean / tail dysplasia, Mean: 5μM through 120 hpf, malformation rate; for Mortality (%): 5 µM, exposure through 120 hpf.
In data set [1] the test system is zebrafish larvae. In words: Nontargeted analysis of PFAS metabolites in zebrafish larvae (high-resolution MS).
Data set [2] in a line: Bioconcentration factors (BCF) of PFAS in zebrafish larvae. The following applies: zebrafish (Danio rerio), whole larvae, other: immersion in exposure medium, 5 µM. The gist of the method:
(§1)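 Zebrafish embryos collected within 1 h post-spawning were exposed individually to each PFAS in facility water with DMSO controls, medium renewed every 24 h from 24 to 96 hpf. Live hatched larvae collected at 120 hpf, wet-weighed, extracted with dichloromethane/methanol and analysed by UHPLC–high-resolution MS against mass-labelled standards.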

The test system of data set [3] is zebrafish larvae. The description is as above. Conditions: zebrafish larvae; for BCF 0.5µM: 0.5 µM exposure; for BCF 0.5µM / BCF 5µM: 120 hpf, three replicates; for BCF 5µM: 5 µM exposure. Put shortly: as §1
The test system of a further data set is soil microcosms. Details: method as in Mejia-Avendaño et al. 2016. The following applies: ref Mejia-Avendaño et al. 2016; cited from earlier work.
Data set [4] deals with liver fatty acid binding protein (L-FABP). Details: method as in Yang et al. 2020. The following applies: ref Yang et al. 2020, cited from earlier work; for Kd: read-out: Kd (μM), L-FABP binding affinity.
Data set [5] concerns zebrafish larvae. Briefly: Identification of taurine conjugates by the DIPIC-Frag method in zebrafish larvae. The following applies: among 74 PFAS. Type of data set: in vivo, Danio rerio. The source says:
To identify the taurine conjugates in zebrafish larvae exposed to PFAS, we used the data-independent precursor isolation and characteristic fragment (DIPIC-Frag) method developed in previous studies ([Peng et al. 2015], [2016]) to enhance the coverage inspired by the detection of the characteristic fragment from taurine conjugates ( [taurine-H]^− , m/z 124.0063). Then, the taurine fragment peak was extracted from each AIF window across all 243 raw MS data. Once the taurine fragment peak was detected, corresponding precursor ions were identified from the same window and sample by aligning their chromatographic peaks. The precursor ions were further confirmed by their co-occurrences with the taurine fragment across samples. Once precursor ions were identified, the compound formulas and structures were predicted by interpreting high-resolution MS and MS/MS spectra, as mentioned above.

Several values for one entry are separate records, joined by “and”; a condition that tells them apart may be missing. Equal entries are not always repeated.

Consider `O=C(O)C(F)(F)C(F)(F)C(F)(F)F` [compound 12, Perfluorobutanoic acid], for which, in the data set on zebrafish embryos, the “pericardial oedemata, Mean” value amounted to 1.11%; the “spinal curvature, Mean” value was found to be 0.00%; the “tail dysplasia, Mean” value came out at 0.00%; the “Mortality (%)” value worked out at 4.4%. The “Peak intensity of PFCA in zebrafish embryos directly exposed to the PFCA” value in the data set on zebrafish larvae [1] (5μM through 120 hpf, single replicates, listed as PFBA) was 3728507 and 3082077 and 5690847. This compound also registered a concentration at 120 hpf in data set [2] of 3.1 ± 0.88 µM. In the data set with zebrafish larvae [3], the “BCF 0.5µM” value was determined as 2.559 L/kg and the “BCF 5µM” value came out at 1.0 ± 0.28 L/kg.

In the case of `C[N+](C)(C)CCCNS(=O)(=O)C(F)(F)C(F)(F)C(F)(F)C(F)(F)C(F)(F)C(F)(F)C(F)(F)C(F)(F)F` [compound 5, Perfluorooctanesulfonamido ammonium iodide], in the data set on zebrafish embryos, the “pericardial oedemata, Mean” value is 0.00%; the “spinal curvature, Mean” value worked out at 1.11%; the “tail dysplasia, Mean” value was 0.00%; the “Mortality (%)” value came to 2.2%. The “Half-life, biodegradation by soil microcosms” value in the data set with soil microcosms is 142 days. The “Metabolite peak features detected” value in the data set on zebrafish larvae [1] (zebrafish larvae exposed to 5μM) came out at 74. In the data set on zebrafish larvae [3], the “BCF at 0.5μM compared with 5μM” value is recorded as “comparable or even higher BCFs at 5μM”, the “BCF 0.5µM” value came out at 48.14 L/kg and the “BCF 5µM” value is 56 ± 16 L/kg. Besides, the L-FABP ligand result in data set [4] was “not identified as L-FABP ligands”.

For `O=C(O)C(F)(F)C(F)(F)C(F)(F)C(F)(F)C(F)(F)C(F)(F)C(F)(F)F` [compound 74, Perfluorooctanoic acid], in the data set on zebrafish embryos, the “pericardial oedemata, Mean” value stood at 0.00%; the “spinal curvature, Mean” value was determined as 0.00%; the “tail dysplasia, Mean” value turned out to be 0.00%; the “Mortality (%)” value is on record as 4.4%. In data set [2], this compound gave a concentration at 120 hpf of 76 ± 1.6 µM. In the data set with zebrafish larvae [3], the “BCF 0.5µM” value was found to be 31.5419 L/kg and the “BCF 5µM” value amounted to 17 ± 3.2 L/kg. For the same compound, the dissociation constant (Kd) in data set [4] was 18.7 µM.

For the compound `OCCCCC(F)(F)C(F)(F)C(F)(F)C(F)(F)F` [compound 40, 4:4 Fluorotelomer alcohol], in the data set on zebrafish embryos, the “pericardial oedemata, Mean” value is given as 0.00%; the “spinal curvature, Mean” value was 0.00%; the “tail dysplasia, Mean” value was found to be 0.00%; the “Mortality (%)” value stood at 0%. For the same compound, the “Profile of metabolites (%): Alcohol” value in the data set with zebrafish larvae [1] (zebrafish larvae, Figure 5B) stood at 0.00%. In the data set with zebrafish larvae [1] (zebrafish larvae, single replicates, Figure 5A), the “Peak intensity: Alcohol (parent FTOH)” value is given as 0. Also, the Taurine conjugates detected entry in the data set on zebrafish larvae [5] was “taurine conjugates were detected”.

Turning to `O=C(O)CCC(F)(F)C(F)(F)C(F)(F)C(F)(F)C(F)(F)F` [compound 14, 2H,2H,3H,3H-Perfluorooctanoic acid], in the data set on zebrafish embryos, the “pericardial oedemata, Mean” value was determined as 0.00%; the “spinal curvature, Mean” value turned out to be 0.00%; the “tail dysplasia, Mean” value is recorded as 1.11%; the “Mortality (%)” value was determined as 1.1%. Moreover, the Taurine conjugates detected entry with zebrafish larvae [5] was “taurine conjugates were detected”. In the data set with zebrafish larvae [3], the “BCF at 0.5μM compared with 5μM” value is reported as “comparable or even higher BCFs at 5μM”, the “BCF 0.5µM” value came out at 6.7299 L/kg and the “BCF 5µM” value came to 8.7 ± 2.1 L/kg. Further, the Kd in data set [4] is 158 µM.
